Key:
[1] = test system: HDF; assay: viable cell counting (Trypan blue) with adenylyl cyclase inhibitor and/or LPA; type: cell-based, human; conditions: senescent cell culture; LPA plus adenylyl cyclase inhibitor (SQ22536 300 μM)
Description: O and Y denote old and young cell, respectively.
Young or old HDF (passage 8-11) were treated with LPA (30 μM), dbcAMP (cAMP analog, 1 mM, Sigma), adenylyl cyclase inhibitor, SQ22536 (300 μM, Calbiochem) and their combinations for 30-60 min at 37° C. The cells treated were stained with Trypan blue (GiBco/BRL) for 10 min at 37° C. and only cells without blue color were then counted under hemacytometer.

[2] = test system: HDF; assay: flow cytometry (FACS, propidium iodide) of cell cycle progression; type: cell-based, human; conditions: senescent cell
Description: FIG. 21 represents the results of FACS analysis evaluating the effect of LPA on cell cycle progression in senescent cells in connection with the affection of cAMP control. Con denotes control group and ACI is adenylyl cyclase inhibitor.
In addition, the treated cells were analyzed using flow cytometry. The treated cells were harvested and treated with […] of 0.1% trypsin for 30 sec, after which centrifugation was performed at 4° C. for 10 min at 1000 rpm. Then, the cell concentration was adjusted to 1-3×10^6 cells/ml in sample buffer. The sample buffer was prepared in such a manner that 1 g glucose in 1 L PBS without Ca^2+ and Mg^2+ was filtered through a 0.22 μm filter. The solutions containing cells was centrifuged at 4° C. for 10 min at 1000 rpm and ice-cold 70% ethanol was added dropwise to pellet. The sample tube was capped, allowed to fix in the ethanol overnight at 4° C., vortexed briefly, and then centrifuged for 5 min at 3000 rpm. Thereafter, ethanol was discarded and PI (propidium iodide) staining solution (0.5 ml 20× propidium iodide stock solution (50 μg/ml final), 1000 kunits RNase A (100 U/ml final) and 10 ml sample buffer) was added into the sample tube. Finally, the sample was analyzed within 24 hr in a […] (FACS Calibur, Beckton-Dikinson).

[3] = test system: human diploid fibroblasts; assay: growth factor-stimulated signaling events in human diploid fibroblasts; type: cell-based
Description: Foreskin fibroblasts were isolated as described by Boyce and Ham (1983). Cells were cultured in Dulbecco's modified Eagle's medium containing 10% fetal bovine serum and antibiotics. The primary culture contained smaller and more closely packed cells during the early stage of the culture. Cells with less than 10 passage were often considered as presenescent cells. As the cells were passaged, they became larger and they have a slower growth rate at passage 10-20. Cells from over 27 passages were completely growth-arrested and developed characteristic appearance designated previously as replicative senescence (Yeo et al., 2000a and b). In order to confirm that cells were senescent, we either examined the activity of beta-galactosidase or stained with X-gal, a membrane permeable substrate of the enzyme, which produces a blue insoluble product inside of the cells. The number of cells stained with X-gal increased with age and most of cells from passage 27-28 were stained. Cultures of over 23-28 passages have also shown the cessation of cell growth and senescence-like morphological changes, but only 70-80% of cells were stained with X-gal. These were termed “near-senescent”. Although the near-senescent cultures were not completely homogeneous, we compared the changes in these cultures to those in presenescent cultures of passage 6-10. In order to determine the growth factor-stimulated signaling events, cells were grown for 1-2 days to 60-70% sub-confluency in the culture medium, and then serum-starved to become quiescent by incubating with serum free medium (SFM) for 2 days. The quiescent cells were treated with various agonists, as described in the figure legends. To label cells, radioactive chemicals were added during the incubation with SFM.
Primary human diploid fibroblasts, isolated from newborn foreskins, were used to study the mechanism of reduced response to growth factor stimulation with aging. These cells were maintained and passaged as described previously (Yeo et al., 2000a). […] Compared to their presenescent counterparts, the senescent and near-senescent cells were larger and grew to lower density, as has been observed in other cell systems. Here the present inventors report upon the differential changes in the signaling events evoked by platelet-derived growth factor (PDGF) and lysophosphatidic acid (LPA). PDGF elicits signaling events over a concentration range of 10-100 ng/ml, whereas LPA stimulates the hydrolysis of phospholipids, Ca^2+ mobilization, and actin polymerization over a concentration range of 0.1-10 μg/ml in human diploid fibroblasts. In order to compare their cellular responses, we treated presenescent and senescent (or near-senescent) cells with PDGF and LPA at a maximally responsive dose of 50 ng/ml and 1 μg/ml, respectively.

[4] = test system: human diploid fibroblasts; assay: measurement of cytosolic free [Ca2+]i by confocal microscopy (fluo-3-AM); type: cell-based; conditions: PDGF 50 ng/ml, LPA 1 μg/ml
Description: FIG. 1 represents differential changes in growth factor-stimulated calcium release in senescent fibroblasts. Presenescent (passage 7: A and C) and senescent (passage 27: B and D) fibroblasts were grown on coverslips, serum-starved, and incubated with 4 μM fluo-3-AM in serum-free medium for 40 min. The stained cells were treated with […] of platelet-derived growth factor (A and B) or 1 μg/ml of lysophosphatidic acid (C and D) via a micro-perfusion system for the real-time measurement of signaling molecules, and laser scanning confocal microscopy. The scanned images were analyzed for changes in intracellular Ca^2+ at the single cell level and results expressed as relative fluorescence intensity (RFI).
[Ca^2+]i was measured using a laser scanning confocal microscope, as described by Junn et al. (2000). Quiescent fibroblasts grown on glass cover slips in a 6-well plate were stained with 4 μM of fluo-3-acetoxymethyl ester (fluo-3-AM) in phenol red-free medium without serum for 40 min and washed three times with the serum-free medium. Stained cells on each cover slip were mounted on a perfusion chamber (MPS-1000, Seoul Engineering, Korea), placed under the confocal laser scanning microscope (Carl Zeiss LSM 410), and scanned every 5 sec with a 488 nm excitation argon laser and a 515 nm long pass emission filter. Growth factors were added to the cells using an automatic pumping system (self-designed). All scanned images were analyzed for [Ca ^2+]i changes at the single cell level using “Time Series Program” for a real-time measurement of relative fluorescence intensity (RFI) which is installed in the Carl Zeiss LSM 410 confocal system.

[5] = test system: human diploid fibroblasts; assay: confocal microscopic measurement of actin polymerization (NBD-phallacidin); type: cell-based; conditions: PDGF 50 ng/ml, LPA 1 μg/ml
Description: FIG. 2 represents differential changes in growth factor-induced actin polymerization in senescent fibroblasts. […] The cells were fixed, permeabilized, and stained with NBD-phallacidin, then photographed.
F-actin was stained as described by Shin et al. (1999). Quiescent cells grown on glass cover slips in multi-well culture plates were treated with agonists for 30 min, and the cells were fixed with 3.7% paraformaldehyde in PBS for 30 min on ice. Following permeabilization with 0.2% Triton X-100 in PBS for 15 min on ice, the cells were stained with […] NBD-phallacidin in PBS for 30 min at RT. The stained cells were washed three times with PBS for 15 min and the cover slip was mounted on a slide glass with Gelvatol, which was prepared by mixing 100 ml of 23% polyvinyl alcohol in PBS with 50 ml glycerol. The cells were then observed under a confocal fluorescence microscope.

[6] = test system: phospholipase D (PLD); assay: phosphatidylbutanol formation as an indication of phospholipase D activity; type: cell-based, human; conditions: passage 24 near-senescent cells vs presenescent; 0.5% 1-butanol, 20 min
Description: Subconfluent presenescent (passage 8: Pa 8) and near-senescent (passage 24: Pa 24) cells were serum-starved and labeled with [^3H]myristic acid overnight. […] A representative experiment of three performed in duplicate is presented.
Quiescent cells were labeled overnight with [^3H]myristic acid (1 μCi/ml) and then washed with PBS. Phosphatidylbutanol formation was measured as described by Yeo et al. (1994). Cells were preincubated with 0.5% (v/v) 1-butanol for 15 min and then treated with agonists for 20 min in the presence of 0.5% 1-butanol. Total lipids were extracted and separated by thin layer chromatography. The band of phosphatidylbutanol was scraped off the plates and its radioactivity was counted in a liquid scintillation cocktail.

[7] = test system: human diploid fibroblasts; assay: DNA synthesis, [3H]thymidine incorporation; type: cell-based; conditions: for increase in [3H]thymidine incorporation: 50-100 ng/ml PDGF
Description: FIG. 5 represents reduction of growth factor-induced thymidine incorporation in near-senescent fibroblasts. […] The amount of [^3H]thymidine incorporated into DNA over 4 hrs was measured as described. The data represents an average of 3 counts in cpm. A representative experiment of the three is presented in A. Fold increase over the untreated control was calculated and plotted in B.
FIG. 18 represents changes in LPA-induced thymidine incorporation and cell proliferation in near-senescent fibroblasts versus presenescent fibroblasts. Subconfluent presenescent (passage 8, Pa 8) and near-senescent (passage 24, Pa 24) fibroblasts were serum-starved for 2 days and treated with LPA (1-70 μg/ml) for 16 hrs. The amount of [^3H]thymidine incorporated into DNA over 4 hrs was measured as described. The data represents an average of 3 counts in cpm in each independent experiments. A representative experiment of the three is presented in A. Converted fold increase over the untreated control was calculated and plotted in B.
Quiescent cells were labeled with [^3H]thymidine (0.5 μCi/ml) for 4 hrs and the […] radioactive thymidine was removed by washing with PBS. DNA was precipitated with 10% TCA and lysed in 0.5N NaOH. The radioactivity in neutralized lysates was counted in a liquid scintillation cocktail.

[8] = test system: Phospholipase C (PLC); conditions: near-senescent cells (passage 23) vs presenescent (passage 6); PDGF 50 ng/ml, LPA 1 μg/ml, 20 min, 20 mM LiCl
[9] = test system: cellular cAMP; assay: measurement of cyclic AMP accumulation (cAMP binding assay); type: cell-based, human; conditions: near-senescent HDF (passage 26); 30 μg/ml LPA; 10 μM inhibitor
Description: FIG. 9 represents LPA-induced alteration of cellular cAMP content in presenescent and near-senescent fibroblasts. Subconfluent presenescent (passage 8, Pa 8) and near-senescent (passage 24, Pa 24) fibroblasts were serum-starved for 2 days and treated with LPA: A, 1-70 μg/ml LPA for 30 min; B, 30 μg/ml LPA for the indicated times. The level of cAMP in the acid extracts was measured by cAMP binding assay. The data represents an average of triplicate experiments.
Subconfluent near-senescent (passage 26, Pa 26) fibroblasts were serum-starved for 2 days and treated with 30 μg/ml LPA for the indicated times in the absence or presence of 10 μM PKC inhibitor bisindolylmaleiamide (bIM). The level of cAMP in the acid extracts was measured by cAMP binding assay. The data represents an average of triplicate experiments.
Cells grown on a 12 well-plate were serum-starved by incubating with SFM for 2 days. After the cells were equilibrated in the fresh SFM medium for 1 hour, they were treated with LPA as described in the figure. The reaction was terminated by removing the medium and by adding 2.5 M perchloric acid. The acid extract was stored at −20° C. until use. The acid extract was neutralized with 4.2 M KOH and the cAMP content was determined by competitive binding with [^3H]cAMP to the cAMP binding protein, RIα of cAMP-dependent protein kinase, as described by Jang and Juhnn (2001). After the extraction, cells were lyzed with 0.1 N NaOH and analyzed for protein content using the Bradford protein assay reagent. The cAMP content was normalized to the amount of acid-insoluble protein.

[10] = near-senescent cells (passage 24)

## Nc1ncnc2c1ncn2C1CCCO1 (stereo not shown) [adenylyl cyclase inhibitor]
[1]
  viable cell number: dramatically increased
[2]; adenylyl cyclase inhibitor alone
  number of cells in S phase: dramatically increased
[2]; co-treatment of adenylyl cyclase inhibitor with LPA
  number of cells in S phase: more enhanced

## PDGF
[3]; human diploid fibroblasts
  concentration range over which signaling events are elicited: 10 to 100 ng/mL
[3]; presenescent and senescent (or near-senescent) cells
  maximally responsive dose: 50 ng/mL
[4]; presenescent fibroblasts (passage 7)
  cytosolic Ca2+ levels: rapid increase
[4]; senescent cells (passage 27)
  Ca2+ response in senescent cells relative to presenescent: greatly attenuated
[5]; presenescent fibroblasts (passage 10)
  actin polymerization (stress fibers): enhanced the formation of stress fibers
[5]; senescent cells (passage 27)
  agonist-induced actin polymerization in senescent cells: almost completely blocked
[6]
  reduction of PLD activity: 80%
[7]; [10]
  agonist-induced DNA synthesis ([3H]thymidine incorporation) in near-senescent cells vs presenescent: greatly reduced
  increase in [3H]thymidine incorporation: 1.3 fold
[7]; presenescent cells (passage 8)
  increase in [3H]thymidine incorporation: 7-8 fold
[7]; presenescent fibroblasts
  concentration range of very strong agonism for [3H]thymidine incorporation: 10 to 100 ng/mL
[8]
  agonist-stimulated inositol phosphates (IPs) production: dramatically reduced

## bisindolylmaleiamide [bis-indolylmaleiamide]
[9]
  cAMP content in LPA-stimulated cells in presence of PKC inhibitor: inhibition of cAMP accumulation
